Measurements published in US11300568B2, “Methods for the diagnosis and treatment of gastrointestinal stromal tumors” (INSERM (INSTITUT NATIONAL DE LA SANTE ET DE LA RECHERCHE …, priority 2016, dated 2022).
Structures can show the parent of a compound that is named as a salt.

Columns and labels:
[1] = tested on: LIX1 transcript levels in GIST882 cells; test: LIX1 expression by RT-qPCR in GIST882 cells; type: cell-based, human; settings: 1 μM, 6 h, 24 h and 48 h, vs DMSO control
Procedure: FIG. 1: LIX1 is expressed in GISTs. (A) LIX1 mRNA expression and regulation in the GIST882 cell line. (a) Semi-quantitative RT-PCR analysis of LIX1 transcript level in 131N1 (astrocytoma cells), PC3 (prostate cancer cells), HeLa, and GIST882 cells. Loading was verified by glyceraldehyde-3-phosphate dehydrogenase (GAPDH) expression. (b) Analysis of LIX1 expression by RT-qPCR in GIST882 cells upon incubation with DMSO alone (control) or with 7.5 μM of Akti (inhibitor of AKT) for 6 h, 24 h and 48 h. Normalized expression levels were converted to fold changes. *P<0.05; **P<0.01. (c) Analysis of LIX1 expression by RT-qPCR in GIST882 cells upon incubation with DMSO alone (control) or with 1 μM of imatinib mesylate (KIT inhibitor) for 6 h, 24 h and 48 h. […] (b) Relapse-free survival from initial imatinib mesylate treatment in group 1 presenting low level of LIX1 compared with group 2 presenting high level of LIX1 individuals with GIST, assessed in a univariate analysis using the Kaplan-Meier method. […]
Total RNA was extracted from stomachs or cell cultures with the HighPure RNA Isolation kit (Roche). […] Each sample was analysed in three independent experiments done in triplicate. Expression levels were determined with the LightCycler analysis software (version 3.5) relative to standard curves. […] Relative mRNA expression was calculated using the 2^−ΔΔCT method. […]

[2] = tested on: LIX1 expression in GIST-T1 cells; test: LIX1 expression by RT-qPCR in GIST-T1 cells; type: cell-based, human; settings: 0.5 μM, 6 h, 24 h and 48 h, vs DMSO control
Procedure: Analysis of LIX1 expression by RT-qPCR in GIST-T1 cells upon incubation with DMSO alone (control) or with 0.5 μM of imatinib mesylate (KIT inhibitor) for 6 h, 24 h and 48 h. Normalized expression levels were converted to fold changes. **P<0.01; ***P<0.001.
Resistance to tyrosine kinase inhibitors such as imatinib is increasing in GISTs and complete remissions are rare, highlighting the necessity to identify additional therapeutic targets. The inventors investigated the role of LIX1 in secondary imatinib-resistant GISTs using GIST-T1 cells, a primary gastric GIST cell line sensitive to Imatinib treatment that harbors hetereygous deletion in KIT gene with constitutive KIT signaling pathway.

[3] = tested on: GIST; settings: after 5 years; increased from 30% after 1 year; cited from earlier work
[4] = tested on: YAP1 activity (YAP-TEAD interaction); test: RT-qPCR of YAP1 and its targets CTGF and CYR61 in LIX1-expressing DF-1 cells; type: cell-based, chicken; settings: low density, 1 μM for 20 hours
Procedure: (§1) The chicken DF-1 fibroblast cell line was cultured as previously described. Cell growth in DF-1 cultures was assessed using the Muse Count and Viability reagent following the manufacturer's specifications (Muse Cell Analyzer-Millipore). DF-1 cells were plated on plastic at 2000 cells/cm^2 to obtain low-density cultures and 6000 cells/cm^2 to obtain high-density cultures. Verteporfin (Sellekchem) was used applied to DF-1 cells for 20 hours at a final concentration of 1 μM.
Total RNA was extracted from stomachs or cell cultures with the HighPure RNA Isolation kit (Roche). Reverse transcription was performed using the Verso cDNA synthesis kit (Thermo Scientific) and RT-qPCR was performed using LightCycler technology (Roche Diagnostics). PCR primers were designed using the LightCycler Probe Design 2.0 software. Each sample was analysed in three independent experiments done in triplicate. Expression levels were determined with the LightCycler analysis software (version 3.5) relative to standard curves. Data were represented as the mean level of gene expression relative to the expression of the reference genes UBIQUITIN or GAPDH. Relative mRNA expression was calculated using the 2^−ΔΔCT method.
DF-1 chicken fibroblasts were infected with replication-competent RCAS retroviruses and cultured for 5 days to ensure homogeneous expression. […]

[5] = tested on: DF-1 fibroblast cell line; test: Cell proliferation of LIX1-expressing DF-1 cultures (Muse Count and Viability); type: cell-based, chicken; settings: LIX1-expressing DF-1 cells, low density, 1 μM for 20 hours
Procedure: as §1
(§2) DF-1 chicken fibroblasts were infected with replication-competent RCAS retroviruses and cultured for 5 days to ensure homogeneous expression. […] This greater expression was associated with higher transcript levels of YAP1 pro-proliferation target genes CTGF and CYR61 and an increase in cell proliferation. […] After 3 days in culture, LIX1-expressing cells had grown faster than control cells. However, although YAP1 expression in LIX1-expressing cells remained higher than in controls, the levels of CTGF and CYR61 transcripts were similar to control levels.

[6] = tested on: DF-1 fibroblast cell line; test: Analysis of cell death in DF-1 cultures; type: cell-based, chicken; settings: 1 μM for 20 hours
Procedure: as §1, §2

Row | Compound | LIX1 transcript levels [1] | LIX1 expression [2] | GIST patient survival [3] | YAP1 expression [4] | levels of CTGF and CYR61 transcripts [4] | rates of proliferation [5] | cytotoxic effect (cell death) [6]
1 | Cc1ccc(NC(=O)c2ccc(CN3CCN(C)CC3)cc2)cc1Nc1nccc(-c2cccnc2)n1 [imatinib mesylate] | strong and efficient inhibition of LIX1 transcript levels | upregulated | 50% |  |  |  | 
2 | verteporfin |  |  |  | upregulation of YAP1 was still observed | comparable with control cells | comparable with control cells | not due to a cytotoxic effect
